The target in assay [1] is T1, BRD4 (BDI_K57-E168) (Homo sapiens, UniProt O60885).
T1 construct: BD1: amino acids K57-E168; made in house
As to the kind of experiment: TR-FRET bromodomain binding assay, BRD4 first bromodomain. The following applies: His-tagged BD1, 100 nM Alexa647 probe; assay protocol D or F as given per row in c1; Ki calculated from IC50. As to the method: (§1) A time-resolved fluorescence resonance energy transfer (TR-FRET) assay was used to determine the affinities of compounds of the Examples listed in Table 1 for each bromodomain of BRD4. His-tagged first (BD1: amino acids K57-E168) and second (BD2: amino acids E352-E168) bromodomains of BRD4 were expressed and purified. An Alexa647-labeled BET-inhibitor was used as the fluorescent probe in the assay.
(§2) Compound dilution series were prepared in DMSO via an approximately 3-fold serial dilution from one of the following:
(§3) Assay method D: 500 μM-8.5 nM
(§4) Assay method E: 0.47 mM to 7.8 nM
(§5) Assay method F: 250 μM-4.2 nM
(§6) Assay method G: 0.047 mM to 0.78 nM
(§7) or 5-fold serial dilution from one of the following:
(§8) Assay method A: 2.5 mM-800 nM
(§9) Assay method B: 2.5 mM-797 nM
(§10) For Assay methods A, C, D, and F: Compounds were then diluted 6:100 in assay buffer (20 mM Sodium Phosphate, pH 6.0, 50 mM NaCl, 1 mM Ethylenediaminetetraacetic acid, 0.01% Triton X-100, 1 mM DL-Dithiothreitol) to yield 3× working solutions. Six microliters (μL) of the working solution was then transferred to white, low-volume assay plates (Costar #3673). A 1.5× assay mixture containing His-tagged bromodomain, Europium-conjugated anti-His antibody (Invitrogen PV5596) and the Alexa-647-conjugated probe molecule was also prepared. Twelve μL of this solution were added to the assay plate to reach a final volume of 18 μL.
(§11) For Assay methods B, E, and G: Compound dilutions were added directly into white, low-volume assay plates (Perkin Elmer Proxiplate 384 Plus#6008280) using a Labcyte Echo in conjunction with Labcyte Access and Thermo Multidrop CombinL robotics. Compounds were then suspended in eight microliters (μL) of assay buffer (20 mM Sodium Phosphate, pH 6.0, 50 mM NaCl, 1 mM Ethylenediaminetetraacetic acid disodium salt dihydrate, 0.01% Triton X-100, 1 mM DL-Dithiothreitol) containing His-tagged bromodomain, Europium-conjugated anti-His antibody (Invitrogen PV5596) and Alexa-647-conjugated probe.
(§12) The final concentration of 1× assay mixture for assay methods A, B, C, D, E, F, and G contains 2% DMSO, 8 nM His-tagged bromodomain, 1 nM Europium-conjugated anti-His-tag antibody and 100 nM or 30 nM probe (for BDI or BDII, respectively) and compound concentration in the range of: 50 μM-16 nM for method A, 49.02 μM-15.63 nM for method B, 25 μM-423 pM for method C, 10 μM-169 pM for method D, 9.19 μM 150 pM for method E, 5 μM-85 pM for method F, and 0.92 μM-15 pM for method G.
(§13) After a one-hour equilibration at room temperature, TR-FRET ratios were determined using an Envision multilabel plate reader (Ex 340, Em 495/520).
(§14) TR-FRET data were normalized to the means of 24 no-compound controls (“high”) and 8 controls containing 1 μM un-labeled probe (“low”). Percent inhibition was plotted as a function of compound concentration and the data were fit with the 4 parameter logistic equation to obtain IC50s Inhibition constants (Ki) were calculated from the IC50s, probe Kd and probe concentration. Typical Z′ values were between 0.65 and 0.75. The minimum significant ratio was determined to evaluate assay reproducibility (Eastwood et al., (2006) J Biomol Screen, 11: 253-261). The MSR was determined to be 2.03 for BDI and 1.93 for BDII, and a moving MSR (last six run MSR overtime) for both BDI and BDII was typically <3.

In assay [2] the target is T2, BRD4 (BDII_E352-M457) (Homo sapiens, UniProt O60885).
T2 construct: protocol; made in house
Put plainly: TR-FRET bromodomain binding assay, BRD4 second bromodomain. As for the experimental part:
as §1, §2, §3, §4, §5, §6, §7, §8, §9, §10, §11, §12, §13, §14
(TR-FRET usually uses a lanthanide donor and a delayed reading to cut background.)

For assay [3], the system named is breast cancer cell line MX-1. As to the kind of experiment: MX-1 cell line proliferation assay. Type of assay: cell-based. The following applies: Homo sapiens, MX1; MX-1 cells, 3-day (72 h) proliferation, Cell Titer Glo; read-out: Cellular proliferation: EC50. As to the method: MX-1 Cell Line Proliferation Assay
The impact of compounds of the Examples on cancer cell proliferation was determined using the breast cancer cell line MX-1 (ATCC) in a 3-day proliferation assay and the data are reported in Table 1. MX-1 cells were maintained in RPMI 1640 medium (Sigma) supplemented with 10% FBS at 37 C.° and an atmosphere of 5% CO2. For compound testing, MX-1 cells were plated in 96-well black bottom plates at a density of 5000 cells/well in 90 μL of culture media and incubated at 37° overnight to allow cell adhesion and spreading. Compound dilution series were prepared in DMSO via a 3-fold serial dilution from 3 mM to 0.1 μM. The DMSO dilution series were then diluted 1:100 in phosphate buffered saline, and 10 μL of the resulted solution were added to the appropriate wells of the MX-1 cell plate. The final compound concentrations in the wells were 3, 1, 0.3, 0.1, 0.03, 0.01, 0.003, 0.001, 0.0003 and 0.0001 μM.
Luminescence readings from the Cell Titer Glo assay were normalized to the DMSO treated cells and analyzed using the GraphPad Prism software with sigmoidal curve fitting to obtain EC50s. The minimum significant ratio (MSR) was determined to evaluate assay reproducibility (Eastwood et al., (2006) J Biomol Screen, 11: 253-261). The overall MSR was determined to be 2.1 and a moving MSR (last six run MSR overtime) has been <2.

Results on 28 compounds are retold here after patent US8980879B2 (AbbVie Inc., priority 2013, dated 2015).

`Cn1cc2c3c(c[nH]c(=O)c31)CN(c1ccc(F)cc1)c1ncc(NC(=O)Cc3ccc(Cl)cc3F)cc1-2` [Example 20]: the figures for the Ki in assay [1] and in assay [2] were 1.76 nM and 4.69 nM, respectively. For the same compound, the EC50 in assay [3] was 36.5 nM.

For the compound `Cn1cc2c3c(c[nH]c(=O)c31)CN(c1ccc(F)cc1)c1ncc(NC(=O)Cc3ccc4c(c3)CCCO4)cc1-2` [Example 21], the Ki (usually a measure of affinity in units of concentration, obtained from inhibition or displacement) was 1.05 nM in assay [1] and 2.69 nM in assay [2]. For the same compound, the EC50 in assay [3] was 16.6 nM.

Regarding `Cn1cc(CC(=O)Nc2cnc3c(c2)-c2cn(C)c4c(=O)[nH]cc(c24)CN3c2ccc(F)cc2)cn1` [Example 22], the figures for the Ki in assay [1] and in assay [2] were 1.29 nM and 3.03 nM, respectively. Further, in assay [3], the EC50 was 16.5 nM.

Consider `Cn1cc2c3c(c[nH]c(=O)c31)CN(c1ccc(F)cc1)c1ccc(N)cc1-2` [Example 23], for which the Ki in assay [1] is 1.38 nM; in assay [2] it was 7.54 nM. For the same compound, the EC50 in assay [3] worked out at 4.79 nM.

For the compound `Cn1cc2c3c(c[nH]c(=O)c31)C(c1ccccc1)Nc1ccc(CS(C)(=O)=O)cc1-2` (stereo not drawn) [Example 25], the results for the Ki in assay [1] and in assay [2] were 192 nM and 124 nM, respectively. Further, the EC50 in assay [3] was more than 1000 nM.

Regarding `Cn1cc2c3c(c[nH]c(=O)c31)CN(c1ccc(F)cc1)c1ccc(NS(=O)(=O)c3ccccc3)cc1-2` [Example 26], the Ki is 0.27 nM in assay [1] and 3.12 nM in assay [2]. In addition, the EC50 in assay [3] came to 9.48 nM.

For the compound `CC(=O)Nc1ccc(S(=O)(=O)Nc2ccc3c(c2)-c2cn(C)c4c(=O)[nH]cc(c24)CN3c2ccc(F)cc2)cc1` [Example 27], the Ki in assay [1] was 0.2 nM; in assay [2], 1.73 nM. Besides, the EC50 in assay [3] came to 8.56 nM.

As for `Cn1cc(CC(=O)Nc2ccc3c(c2)-c2cn(C)c4c(=O)[nH]cc(c24)CN3c2ccc(F)cc2)cn1` [Example 28], the results for the Ki in assay [1] and in assay [2] were 1.17 nM and 8.21 nM, respectively. The EC50 in assay [3] stood at 13.5 nM.

On to `Cn1cc2c3c(c[nH]c(=O)c31)CN(c1ccc(F)cc1)c1ccc(NC(=O)Cc3cc(F)ccc3Cl)cc1-2` [Example 30], for which the values for the Ki in assay [1] and in assay [2] were 3.53 nM and 21.8 nM, respectively. Further, the EC50 in assay [3] turned out to be 51.2 nM.

On to `Cc1ncc(CC(=O)Nc2ccc3c(c2)-c2cn(C)c4c(=O)[nH]cc(c24)CN3c2ccc(F)cc2)s1` [Example 32], for which the inhibitory constant (Ki) in assay [1] is 1.37 nM; in assay [2], 11.6 nM. Also, the EC50 in assay [3] worked out at 12.3 nM.

Regarding `Cc1cc(CC(=O)Nc2ccc3c(c2)-c2cn(C)c4c(=O)[nH]cc(c24)CN3c2ccc(F)cc2)nn1C` [Example 33], the Ki in assay [1] was 1.49 nM; in assay [2], 6.39 nM. For the same compound, the EC50 in assay [3] was 17.4 nM.

For the compound `Cn1cc2c3c(c[nH]c(=O)c31)CN(c1ccc(F)cc1)c1ccc(NC(=O)CCCC(=O)Nc3ccccc3)cc1-2` [Example 34], the Ki in assay [1] was 2.2 nM; in assay [2], 24.9 nM. For the same compound, the EC50 in assay [3] was 47.9 nM.

Turning to `Cc1cnc(C(=O)Nc2ccc3c(c2)-c2cn(C)c4c(=O)[nH]cc(c24)CN3c2ccc(F)cc2)cn1` [Example 35], the inhibitory constant (Ki) in assay [1] is 2.01 nM; in assay [2], 18.9 nM. In assay [3], the EC50 was found to be 26.4 nM.

As for `CCn1ccc(CNc2ccc3c(c2)-c2cn(C)c4c(=O)[nH]cc(c24)CN3c2ccc(F)cc2)n1` [Example 37], the Ki was 1.07 nM in assay [1] and 7.42 nM in assay [2]. Besides, in assay [3], the EC50 was found to be 19 nM.

`Cn1nccc1CNc1ccc2c(c1)-c1cn(C)c3c(=O)[nH]cc(c13)CN2c1ccc(F)cc1` [Example 38]: the Ki in assay [1] is 1.52 nM; in assay [2] it was 9.3 nM. The EC50 in assay [3] is 9 nM.

With `Cn1cc2c3c(c[nH]c(=O)c31)CN(c1ccc(F)cc1)c1ccc(NCCCn3cccn3)cc1-2` [Example 39], the Ki is 1.94 nM in assay [1] and 12.3 nM in assay [2]. For the same compound, the EC50 in assay [3] worked out at 23.2 nM.

With `Cc1cccc(CNc2ccc3c(c2)-c2cn(C)c4c(=O)[nH]cc(c24)CN3c2ccc(F)cc2)n1` [Example 40], the Ki in assay [1] is 0.86 nM; in assay [2], 7.27 nM. Besides, the EC50 in assay [3] stood at 25.5 nM.

With `COC(=O)CCCNc1ccc2c(c1)-c1cn(C)c3c(=O)[nH]cc(c13)CN2c1ccc(F)cc1` [Example 41], the Ki in assay [1] was 1.73 nM; in assay [2], 12.5 nM. Also, the EC50 in assay [3] is 55.6 nM.

With `Cn1cncc1CNc1ccc2c(c1)-c1cn(C)c3c(=O)[nH]cc(c13)CN2c1ccc(F)cc1` [Example 42], the Ki in assay [1] was 2.07 nM; in assay [2] it was 13.4 nM. Besides, the EC50 in assay [3] stood at 9.83 nM.

Turning to `Cc1cccnc1CNc1ccc2c(c1)-c1cn(C)c3c(=O)[nH]cc(c13)CN2c1ccc(F)cc1` [Example 43], the results for the Ki in assay [1] and in assay [2] were 1.25 nM and 6.49 nM, respectively. Also, in assay [3], the EC50 is 17.3 nM.

With `Cn1cc2c3c(c[nH]c(=O)c31)CN(c1ccc(F)cc1)c1ccc(NC(=O)Nc3cccc(Oc4ccccc4)c3)cc1-2` [Example 44], the Ki in assay [1] is 53.3 nM; in assay [2], more than 408 nM. Besides, the EC50 in assay [3] is more than 1000 nM.

As to `CN1CCN(CCC(=O)Nc2ccc3c(c2)-c2cn(C)c4c(=O)[nH]cc(c24)CN3c2ccc(F)cc2)CC1` [Example 47], the figures for the Ki in assay [1] and in assay [2] were 1.14 nM and 13.3 nM, respectively. Moreover, the EC50 in assay [3] came to 14.3 nM.

With `Cn1cc2c3c(c[nH]c(=O)c31)CN(c1ccc(F)cc1)c1ccc(NC(=O)CCN3CCCCC3)cc1-2` [Example 48], the results for the Ki in assay [1] and in assay [2] were 2.39 nM and 19.5 nM, respectively. Moreover, the EC50 in assay [3] came to 29.5 nM.

For `Cn1cc2c3c(c[nH]c(=O)c31)CN(c1ccc(F)cc1)c1ccc(NC(=O)Cc3cc(F)ccc3Br)cc1-2` [Example 49], the inhibition constant Ki in assay [1] is 2.74 nM; in assay [2], 29.8 nM. Further, the EC50 in assay [3] stood at 65.1 nM.

Turning to `Cn1cc2c3c(c[nH]c(=O)c31)CN(c1ccc(F)cc1)c1ccc(NC(=O)Cc3cc(Cl)ccc3Cl)cc1-2` [Example 50], the Ki in assay [1] was 5.94 nM; in assay [2], 33.1 nM. The EC50 in assay [3] came out at 63.7 nM.

For `Cn1cc2c3c(c[nH]c(=O)c31)CN(c1ccc(F)cc1)c1ccc(NC(=O)Cc3cc(F)ccc3F)cc1-2` [Example 52], the Ki in assay [1] is 2.76 nM; in assay [2] it was 55.9 nM. Further, the EC50 in assay [3] was 55.9 nM.

On to `Cc1ccc(F)cc1CNC(=O)c1ccc2c(c1)-c1cn(C)c3c(=O)[nH]cc(c13)CN2c1ccc(F)cc1` [Example 57], for which the Ki was 1.72 nM in assay [1] and 29 nM in assay [2]. Further, the EC50 in assay [3] is 54.9 nM.

On to `Cn1cc2c3c(c[nH]c(=O)c31)CN(c1ccc(F)cc1)c1ccc(C(=O)NCc3cc(F)ccc3Br)cc1-2` [Example 58], for which the values for the Ki in assay [1] and in assay [2] were 1.83 nM and 12.7 nM, respectively. For the same compound, the EC50 in assay [3] amounted to 63.3 nM.
